Data taken from patent US8883793B2, “Tubulin inhibitors and methods of using the same” (Development Center for Biotechnology, priority 2010, dated 2014).
Values belong to the compound of their own block, whether it stands above or below them.

How the values were obtained:
biotinylated tubulin = assay: Colchicine competitive-binding assay; conditions: at 10 μM concentration, 3H-colchicine; for binding rate (%) (colchicine competitive-binding): left column pair of Table 7; for Inhibition rate (%) (colchicine competitive-binding): right column pair of Table 7
Description: The colchicine competitive-binding assay was done by using the Colchicine Site competitive Assay Kit (Cytoskeleton, Inc.), streptavidin-coated yttrium SPA beads(GE Healthcare, Inc.), and ^3H-colchicine(PerkinElmer, Inc.). Briefly, the binding mixture includes 1 μL^3H-labeled ligand (specific activity […]), and 1 μg biotinylated tubulin and 88 μg SPA beads in 200 μL assay buffer. The test compound and ^3H-labeled ligand were added before tubulin. After incubation at 37° C. for 2 hours, the SPA beads were allowed to settle down for 24 hours at room temperature, and scintillation counting was done on the TopCount Microplate Scintillation Counter.

porcine brain tubulin = assay: Tubulin polymerization assay; type: biochemical; conditions: at 10 μM concentration
Description: In vitro tubulin polymerization assay was performed by using the Tubulin Polymerization Assay Kit (Cytoskeleton, Inc., Denver, Colo.) in a 96-well format, which used the polymerization of porcine brain tubulin in vitro in the presence of varying concentrations of the test compounds. Fluorescence measurements were obtained at 1-minute intervals over a 31-minute period. Fluorescent measurements were performed using excitation at 365 nm, and emission was measured at 440 nm using a Packard Fusion Alpha Microplate Analyzer. Data were analyzed as relative fluorescent units by GraphPad Prism 5 Demo.

KB cell = assay: MTS assay, growth inhibition of KB cells; type: cell-based; conditions: Homo sapiens, at 10 μM concentration, incubated for 72 h, read-out: Inhibition rate (%) (growth inhibition rate of MTS assay)
In short: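 KB cells were allowed 24 h to attach before a 72 h exposure to compound at 10 μM. Viability was measured by MTS/PMS reduction, with absorbance read at 490 nm after 3 h. Values are reported as percent growth inhibition.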

SMILES: COc1ccc(Cc2cnc(NC(=O)CCc3ccccc3)s2)cc1 [Compound 9, N-[5-(4-Methoxy-benzyl)-thiazol-2-yl]-3-phenyl-propionamide]
binding rate (%) (colchicine competitive-binding) (biotinylated tubulin): 77.5% | Inhibition rate (%) of tubulin polymerization (porcine brain tubulin): 79.0% | inhibition at 10 µM (KB cell): 96.1%

SMILES: COc1ccc(Cc2cnc(NC(=O)CCc3cccnc3)s2)cc1 [Compound 10, N-[5-(4-Methoxy-benzyl)-thiazol-2-yl]-3-pyridin-3-yl-propionamide]
binding rate (%) (colchicine competitive-binding) (biotinylated tubulin): 88.6% | Inhibition rate (%) of tubulin polymerization (porcine brain tubulin): 88.7% | inhibition at 10 µM (KB cell): 94.4%

SMILES: COc1ccc(Cc2cnc(NC(=O)CCc3cccnc3)s2)cc1OC [Compound 17, N-[5-(3,4-Dimethoxy-benzyl)-thiazol-2-yl]-3-pyridin-3-yl-propionamide]
binding rate (%) (colchicine competitive-binding) (biotinylated tubulin): 76.9% | Inhibition rate (%) of tubulin polymerization (porcine brain tubulin): 65.3% | inhibition at 10 µM (KB cell): 95.9%

SMILES: O=C(CCc1ccccc1)Nc1ncc(Cc2ccc(C(F)(F)F)cc2)s1 [Compound 47, 3-Phenyl-N-[5-(4-trifluoromethyl-benzyl)-thiazol-2-yl]-propionamide]
binding rate (%) (colchicine competitive-binding) (biotinylated tubulin): 55.4% | Inhibition rate (%) of tubulin polymerization (porcine brain tubulin): 57.2% | inhibition at 10 µM (KB cell): 94.5%

SMILES: COc1ccc(Cc2cnc(NC(=O)CCc3ccccc3)s2)c(OC)c1OC [Compound 52, 3-Phenyl-N-[5-(2,3,4-trimethoxy-benzyl)-thiazol-2-yl]-propionamide]
binding rate (%) (colchicine competitive-binding) (biotinylated tubulin): 75.4% | Inhibition rate (%) of tubulin polymerization (porcine brain tubulin): 51.2% | inhibition at 10 µM (KB cell): 94.5%

SMILES: COc1ccc(Cc2cnc(NC(=O)CCc3cccnc3)s2)c(OC)c1OC [Compound 53, 3-Pyridin-3-yl-N-[5-(2,3,4-trimethoxy-benzyl)-thiazol-2-yl]-propionamide]
binding rate (%) (colchicine competitive-binding) (biotinylated tubulin): 78.7% | Inhibition rate (%) of tubulin polymerization (porcine brain tubulin): 62.2% | inhibition at 10 µM (KB cell): 96.7%

SMILES: O=C(CCc1ccccc1)Nc1ncc(-c2ccc(F)cc2)s1 [Compound 58, N-[5-(4-Fluoro-phenyl)-thiazol-2-yl]-3-phenyl-propionamide]
Inhibition rate (%) of tubulin polymerization (porcine brain tubulin): 55.1% | inhibition at 10 µM (KB cell): 85.8%

Continued, in another order:

Inhibition rate (%) (colchicine competitive-binding) (biotinylated tubulin): 57.2%
SMILES: O=C(/C=C/c1ccccc1)Nc1ncc(-c2ccccc2)cn1 [Compound 93, 3-Phenyl-N-(5-phenyl-pyrimidin-2-yl)-acrylamide]
inhibition at 10 µM (KB cell): 96%

Inhibition rate (%) (colchicine competitive-binding) (biotinylated tubulin): 57.5%
SMILES: O=C(/C=C/c1ccccc1)Nc1ncc(-c2ccc(F)cc2)cn1 [Compound 98, N-[5-(4-Fluoro-phenyl)-pyrimidin-2-yl]-3-phenyl-acrylamide]
inhibition at 10 µM (KB cell): 81.9%

Inhibition rate (%) (colchicine competitive-binding) (biotinylated tubulin): 56.9%
SMILES: COc1cccc(-c2cnc(NC(=O)/C=C/c3ccccc3)nc2)c1OC [Compound 101, N-[5-(2,3-Dimethoxy-phenyl)-pyrimidin-2-yl]-3-phenyl-acrylamide]
inhibition at 10 µM (KB cell): 97.5%

Inhibition rate (%) (colchicine competitive-binding) (biotinylated tubulin): 81.1%
SMILES: Cc1ccc(CCC(=O)Nc2ncc(-c3cccc4ccccc34)cn2)o1 [Compound 103, 3-(5-Methyl-furan-2-yl)-N-(5-naphthalen-1-yl-pyrimidin-2-yl)-propionamide]
inhibition at 10 µM (KB cell): 94.1%

Inhibition rate (%) (colchicine competitive-binding) (biotinylated tubulin): 61.3%
SMILES: O=C(CCc1ccccc1)Nc1ncc(-c2cccc3ccccc23)cn1 [Compound 104, N-(5-Naphthalen-1-yl-pyrimidin-2-yl)-3-phenyl-propionamide]
inhibition at 10 µM (KB cell): 96.6%

Inhibition rate (%) (colchicine competitive-binding) (biotinylated tubulin): 58.2%
SMILES: Cc1cc(-c2ccc(N(C)C)cc2)cnc1NC(=O)CCc1ccccc1 [Compound 119, N-[5-(4-Dimethylamino-phenyl)-3-methyl-pyridin-2-yl]-3-phenyl-propionamide]
inhibition at 10 µM (KB cell): 95.1%
